Reference: patent US20070021509A1, “Phosphate transport inhibitors” (priority 2001, published 2007)

system: phosphate uptake by rabbit intestinal Brush Border Membrane Vesicles (BBMV); test: 33PO4 uptake in rabbit intestinal BBMV (HTS), phosphate transporter inhibition in vitro; type: biochemical; conditions: Table 1, phosphate uptake, read-out: IC50
Method: The following example outlines the procedures required for in vitro measurement of the inhibition of phosphate uptake by rabbit intestinal Brush Border Membrane Vesicles (BBMV).
Rabbit Intestinal Brush Border Membrane Vesicles (BBMV) were isolated from mucosal scrapings of the upper small intestine (duodenum) of male New Zealand White rabbits. The scrapings were divided into 2 g aliquots in cryopreservation vials, frozen in liquid nitrogen, and stored at −80° C.
The following procedure was performed for each 2 g sample of BBMV mucosal scraping. Buffer volumes and container sizes were adjusted appropriately for the number of 2 g samples used. The entire preparation was performed on ice, unless otherwise stated.
Mucosal scrapings (2 g per tube) were thawed in a 37° C. water bath for 3 minutes and then placed on ice. The scrapings were suspended with a total of 7.5 ml of 300 MET, and transferred to a 250 mL Corning tube on ice. To the suspension was added 30 mL cold (4° C.) deionized water (dH20). The suspension was homogenized with a tissue homogenizer (Polytron) on high speed for 2 minutes. A stir bar and MgCl2 (81.3 mg) was added. The suspension was mixed well by inverting the closed tube. The suspension was stirred on ice, ensuring that a good vortex is achieved with the stir bar, for 40 minutes. The suspension was transferred to a chilled centrifuge tube and spun at 4000×g for 15 minutes. The supernatant was transferred to a new chilled centrifuge tube and spun at 32000×g for 30 minutes. The supernatant was discarded and the pellet was re-suspended with 34 mL cold 60 MET. The suspension was homogenized with a Dounce homogenizer with 8 strokes. The suspension was transferred to a fresh 250 mL Corning tube. A stir bar and 69.1 mg MgCl2 were added. The suspension was stirred well on ice for 10 minutes. The suspension was transferred to a chilled centrifuge tube and spun at 4000×g for 15 minutes. The supernatant was transferred to a new chilled centrifuge tube and spun at 32000×g for 30 minutes. The supernatant was discarded. At this stage, the preparation could be continued or this pellet (P4) could be frozen in liquid nitrogen and stored at −80° C. When needed, this pellet could be allowed to thaw at room temperature for 5 minutes. Continuing the preparation, the pellet was re-suspended with 34 mL cold 280 MH. The suspension was homogenized in a Dounce homogenize with 8 strokes. The suspension was transferred to a new chilled centrifuge tube and spun at 32000×g for 30 minutes. The supernatant was discarded. To the pellet was added 500 μL 280 MH and the pellet was re-suspended very carefully with a 1 mL tuberculin syringe with a 25-gauge needle with care not to create bubbles. Once the entire pellet was suspended, the suspension was transferred to a chilled 1.5 mL microfuge tube. The suspension was evenly dispersed by bringing the suspension up into the syringe through the 25-gauge needle, and back out again 8 times with care not to create bubbles. The total protein concentration was determined by performing a Bradford Protein Assay. Using that value, the BBMV were diluted with 280 MH to reach approximately 0.5-2.0 mg/mL. The solution was used as soon as possible for uptake studies.
The following experiment was performed using a Beckman Multimek 96-tip robotic pipettor. The following outlines the preparation required to screen one 96-well plate of compounds. However, multiple plates could be screened in one experiment.
To the “Uptake Buffers” was added ^33PO4 to reach 200,000 CPM/19 μL. The buffer solutions were stored at room temperature. The following control solutions were prepared and placed into appropriate wells of a polypropylene, 96-well V-bottom plate (“Hot Stock Plate”):
a. Maximum activity (MAX)−Na Uptake buffer+^33PO4 at 200,000 CPM/19 μL
b. Midline activity (MID)−MAX+100 μM KH2PO4, pH 7.4
c. Minimum activity (MIN)− K Uptake buffer+^33PO4 at 200,000 CPM/19 μL

SMILES | IC50
O=C(O)c1cc(Br)ccc1NS(=O)(=O)c1ccccc1F [Compound 25] | 101 to 500 µM
O=C(O)c1cc(Br)ccc1NS(=O)(=O)c1ccc(OC(F)(F)F)cc1 [Compound 41] | > 1500 µM
O=C(O)c1cc(Br)ccc1NS(=O)(=O)c1ccccc1[N+](=O)[O-] [Compound 48] | > 1500 µM
O=C(O)c1cc(Br)ccc1NS(=O)(=O)c1ccc([N+](=O)[O-])cc1 [Compound 33] | 101 to 500 µM
CCCCCc1ccc(S(=O)(=O)Nc2ccc(Br)cc2C(=O)O)cc1 [Compound 28] | 101 to 500 µM

same assay, conditions: Table 2, phosphate uptake, read-out: IC50

SMILES | IC50
Cc1ccccc1CNC(=O)c1cc(Br)ccc1NS(=O)(=O)c1ccc(OC(F)(F)F)cc1 [Compound 67] | 51 to 100 µM
Cc1ccccc1NC(=O)c1cc(Br)ccc1NS(=O)(=O)c1ccc(Cl)cc1 [Compound 94] | > 1500 µM
COc1cccc(CNC(=O)c2cc(Br)ccc2NS(=O)(=O)c2ccc(OC(F)(F)F)cc2)c1 [Compound 54] | < 50 µM
O=C(Nc1cccc(Cl)c1)c1cc(Br)ccc1NS(=O)(=O)c1ccc(Cl)c([N+](=O)[O-])c1 [Compound 123] | > 1500 µM
COc1ccc(S(=O)(=O)Nc2ccc(Br)cc2C(=O)Nc2ccccc2Br)cc1[N+](=O)[O-] [Compound 105] | 51 to 100 µM
O=C(Nc1ccc(Br)cc1)c1cc(Br)ccc1NS(=O)(=O)c1ccc(OC(F)(F)F)cc1 [Compound 51] | < 50 µM
COc1ccc(S(=O)(=O)Nc2ccc(Br)cc2C(=O)Nc2ccc(Cl)cc2Cl)cc1[N+](=O)[O-] [Compound 104] | 51 to 100 µM
O=C(Nc1cccc(Cl)c1)c1cc(Br)ccc1NS(=O)(=O)c1ccc(Cl)cc1 [Compound 95] | > 1500 µM
O=C(NCc1ccc(Cl)cc1)c1cc(Br)ccc1NS(=O)(=O)c1ccc(OC(F)(F)F)cc1 [Compound 53] | < 50 µM
Cc1ccc(NC(=O)c2cc(Br)ccc2NS(=O)(=O)c2ccc(OC(F)(F)F)cc2)cc1 [Compound 57] | 51 to 100 µM
COc1ccc(S(=O)(=O)Nc2ccc(Br)cc2C(=O)Nc2cccc(Cl)c2)cc1[N+](=O)[O-] [Compound 101] | 51 to 100 µM
COc1ccc(S(=O)(=O)Nc2ccc(Br)cc2C(=O)Nc2ccccc2Cl)cc1[N+](=O)[O-] [Compound 99] | 51 to 100 µM
COc1ccc(CNC(=O)c2cc(Br)ccc2NS(=O)(=O)c2ccc(OC(F)(F)F)cc2)cc1 [Compound 77] | 101 to 500 µM
O=C(NCc1ccccc1C(F)(F)F)c1cc(Br)ccc1NS(=O)(=O)c1ccc(OC(F)(F)F)cc1 [Compound 55] | < 50 µM
O=C(Nc1cc(Cl)ccc1Cl)c1cc(Br)ccc1NS(=O)(=O)c1ccc(Cl)c([N+](=O)[O-])c1 [Compound 112] | < 50 µM
COc1ccc(S(=O)(=O)Nc2ccc(Br)cc2C(=O)Nc2ccccc2C)cc1[N+](=O)[O-] [Compound 108] | 101 to 500 µM
O=C(Nc1ccccc1Br)c1cc(Br)ccc1NS(=O)(=O)c1ccc(Cl)cc1 [Compound 90] | 101 to 500 µM

same assay, conditions: Table 3, 100 μM compound

SMILES | % Inhib. At 100 μM
CSc1ccc(N(c2ccc(OC(F)(F)F)cc2)S(=O)(=O)c2ccc(OC(F)(F)F)cc2)cc1 [Compound 167] | 21%
O=S(=O)(NCc1ccc(F)cc1F)c1ccc(OC(F)(F)F)cc1 [Compound 153] | 53%
O=[N+]([O-])c1ccc(S(=O)(=O)n2cnc3ccccc32)cc1 [Compound 164] | 26%
O=S(=O)(c1ccccc1)n1nnc2ccccc21 [Compound 143] | 64%
O=S(=O)(Nc1cccc(Cl)c1)c1ccc(OC(F)(F)F)cc1 [Compound 132] | 79%
CCOC(=O)c1cc2cccc(NS(=O)(=O)c3ccc(OC(F)(F)F)cc3)c2[nH]1 [Compound 137] | 74%
O=[N+]([O-])c1cc(Br)ccc1N(c1ccc(OC(F)(F)F)cc1)S(=O)(=O)c1ccc(OC(F)(F)F)cc1 [Compound 160] | 34%
O=S(=O)(c1ccc2ccccc2c1)N1CCc2ccccc21 [Compound 155] | 51%
O=S(=O)(c1ccc(Cl)cc1)N1CCCc2ccccc21 [Compound 139] | 70%
O=S(=O)(c1ccc(Cl)cc1)N1CCc2ccccc21 [Compound 140] | 69%

same assay, conditions: Table 4, phosphate uptake, read-out: IC50

SMILES | IC50
CC(NC(=O)Nc1ccc(Br)cc1P(=O)(O)O)c1cccc2ccccc12 (stereo not shown) [Compound 209] | > 1500 µM
CCOC(=O)c1cccc(NC(=O)Nc2ccc(Br)cc2P(=O)(O)O)c1 [Compound 208] | 1000 to 1500 µM
O=C(Nc1ccc(F)c(C(F)(F)F)c1)Nc1ccc(Br)cc1P(=O)(O)O [Compound 188] | 101 to 500 µM
CCOc1ccc(NC(=O)Nc2ccc(Br)cc2P(=O)(O)O)cc1 [Compound 212] | > 1500 µM
O=C(Nc1ccc(C(F)(F)F)cc1)Nc1ccc(Br)cc1P(=O)(O)O [Compound 202] | 501 to 1000 µM

same assay, conditions: Table 5, 100 μM compound

SMILES | % Inhib. at 100 μM
O=C(Nc1cccc(C(F)(F)F)c1)Nc1ccc(F)c([N+](=O)[O-])c1 [Compound 222] | 88%
O=C(Nc1cccc(C(F)(F)F)c1)Nc1ccc(Cl)cc1Cl [Compound 224] | 85%
O=C(Nc1cccc(C(F)(F)F)c1)Nc1ccc(Cl)c(Cl)c1 [Compound 216] | 95%
O=C(Nc1cccc(C(F)(F)F)c1)Nc1c(Cl)cccc1Cl [Compound 218] | 93%
O=C(NCc1ccc(Cl)c(Cl)c1)Nc1ccc(Br)cc1P(=O)([O-])[O-].[Na+].[Na+] [Compound 221] | 91%

same assay, conditions: Table 6, 100 μM compound

SMILES | % Inhib. at 100 μM
Cn1nc(-c2cc(Cl)cc(Cl)c2O)cc1-c1ccc(Br)cc1 [Compound 238] | 16%
c1ccc(Oc2ccc(C3=NOC(c4ccco4)C3)cc2)cc1 (stereo not shown) [Compound 233] | 68%
c1ccc(Oc2ccc(-c3cc(-c4ccco4)on3)cc2)cc1 [Compound 232] | 72%

same assay, conditions: Table 8, 100 μM compound

SMILES | % Inhib. at 100 μM
CCCCCCCc1ccc(C(=O)Nc2ccc(Br)cc2P(=O)(OCC)OCC)cc1 [Compound 247] | 53%

same assay, conditions: Table 10, phosphate uptake, read-out: IC50

SMILES | IC50
O=C(Nc1ccc(Br)cc1)c1cc(Br)cc(Br)c1OCCP(=O)(O)O [Compound 263] | 101 to 500 µM
O=C(Nc1ccc(Br)cc1)c1cc(Br)cc(Br)c1O [Compound 251] | 51 to 100 µM
O=C(Nc1ccc(Cl)cc1)c1cc(Br)cc(Br)c1O [Compound 255] | 101 to 500 µM
COc1ccc(NC(=O)c2cc3ccc4c5ccccc5[nH]c4c3cc2O)cc1 [Compound 257] | 101 to 500 µM
O=C(Nc1ccc(Br)cc1)c1cc(Br)cc(Br)c1O [Compound 253] | 101 to 500 µM
O=C(Nc1cc(C(F)(F)F)ccc1C(F)(F)F)c1cc(Br)cc(Br)c1O [Compound 256] | 101 to 500 µM

same assay, conditions: Table 11, phosphate uptake, read-out: IC50

SMILES | IC50
O=C(/C=C/c1cccc(F)c1)c1cccc(O)c1 [Compound 277] | 501 to 1000 µM

same assay, conditions: Table 12, 100 μM compound

SMILES | % Inhib. at 100 μM
O=S(=O)(Cc1ccc(Cl)cc1Cl)c1cc(C(F)(F)F)cc(C(F)(F)F)c1 [Compound 280] | 57%
Cc1cc(S(=O)(=O)Cc2ccc(Cl)c(Cl)c2)c(Cl)cc1Cl [Compound 284] | 51%

same assay, conditions: Table 13, phosphate uptake, read-out: IC50

SMILES | IC50
O=C(Nc1ccc(/C=C/c2ccc(NC(=O)c3ccccc3)cc2S(=O)(=O)O)c(S(=O)(=O)O)c1)c1ccccc1 [Compound 300] | 501 to 1000 µM
O=[N+]([O-])c1ccc(S(=O)(=O)Nc2ccc(/C=C/c3ccc(NS(=O)(=O)c4ccc([N+](=O)[O-])cc4)cc3S(=O)(=O)O)c(S(=O)(=O)O)c2)cc1 [Compound 294] | 101 to 500 µM
O=S(=O)(O)c1cc(NS(=O)(=O)c2cccc(C(F)(F)F)c2)ccc1/C=C/c1ccc(NS(=O)(=O)c2cccc(C(F)(F)F)c2)cc1S(=O)(=O)O [Compound 296] | 101 to 500 µM
